Patent EP0821958A2 (ELI LILLY AND COMPANY, priority 1996, dated 1998)

Columns and labels:
[1] = target: muscarinic cholinergic receptors; experiment: 3H-oxotremorine-M binding inhibition (oxotremorine-M versus N-methylscopolamine binding studies); settings: inhibition of binding of 3H-oxotremorine-M; read-out: inhibition constant (Ki)
m4 receptors = m4 receptors (Homo sapiens, UniProt P08173); type: cell-based; settings: CHO m4 cells treated with pertussis toxin
D2 receptor subtype = D2 receptor subtype (Homo sapiens, UniProt P14416); experiment: Pharmacological studies at the D2 receptor subtype
D2 receptor subtype, sequence (P14416 whole entry): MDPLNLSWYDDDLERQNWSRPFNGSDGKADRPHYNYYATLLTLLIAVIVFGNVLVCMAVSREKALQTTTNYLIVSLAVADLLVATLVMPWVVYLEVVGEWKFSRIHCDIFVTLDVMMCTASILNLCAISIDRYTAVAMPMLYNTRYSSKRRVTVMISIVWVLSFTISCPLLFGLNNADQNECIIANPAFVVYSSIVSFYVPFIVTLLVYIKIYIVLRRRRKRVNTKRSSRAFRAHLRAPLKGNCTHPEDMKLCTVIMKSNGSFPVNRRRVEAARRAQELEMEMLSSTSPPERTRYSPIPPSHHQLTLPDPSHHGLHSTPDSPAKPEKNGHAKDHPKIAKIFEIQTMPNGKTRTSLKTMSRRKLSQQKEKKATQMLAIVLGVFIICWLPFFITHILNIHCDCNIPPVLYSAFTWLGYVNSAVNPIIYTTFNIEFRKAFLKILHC

m4 receptors, sequence (P08173 whole entry): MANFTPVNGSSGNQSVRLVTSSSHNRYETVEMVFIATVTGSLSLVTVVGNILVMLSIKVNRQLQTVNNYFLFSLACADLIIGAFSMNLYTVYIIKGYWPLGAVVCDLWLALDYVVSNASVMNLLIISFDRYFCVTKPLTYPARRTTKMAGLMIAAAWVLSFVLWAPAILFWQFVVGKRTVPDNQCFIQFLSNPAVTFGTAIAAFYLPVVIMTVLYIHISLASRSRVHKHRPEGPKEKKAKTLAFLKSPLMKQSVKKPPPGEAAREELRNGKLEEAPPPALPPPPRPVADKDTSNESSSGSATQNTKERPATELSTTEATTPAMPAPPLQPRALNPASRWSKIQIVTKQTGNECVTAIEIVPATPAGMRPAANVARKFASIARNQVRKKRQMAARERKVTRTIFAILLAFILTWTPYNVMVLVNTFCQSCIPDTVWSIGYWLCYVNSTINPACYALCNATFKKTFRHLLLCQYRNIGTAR

CCCCCCOc1nsnc1C1=CCCN(C)C1 [xanomeline, 3-(4-hexyloxy-1,2,5-thiadiazol-3-yl)-1,2,5,6-tetrahydro-1-methylpyridine]
Ki [1]: 2 nM | formation of cAMP (m4 receptors): efficaciously and potently stimulated the formation of cAMP | activity at the D2 receptor subtype (D2 receptor subtype): active
